From publication PMC5335257, “Promoting in vivo remyelination with small molecules: a neuroreparative pharmacological treatment for Multiple Sclerosis” (Scientific Reports, 2017)

Assays:
GSK-3 = tested on: GSK-3; design: method as in PMID 24437940; conditions: read-out: GSK-3 inhibition IC50; cited from earlier work
[1] = tested on: OPCs isolated from P0 mice; assay: Differentiation assay, murine OPCs; assay type: cell-based, mouse
Protocol: We isolated OPCs, as previously described. Briefly, a stock papain solution was prepared containing ([…]; Worthington Biochemical), L-cysteine (0.2 mg/ml; Sigma), and EDTA (0.2 mg/ml; Sigma) in Hank’s Balanced Salt Solution (HBSS; Invitrogen) without Ca^2+ and Mg[2]. Then, the cerebral cortices of P0 CD1 mice were dissected out and placed for 5 minutes at 37 °C in a medium containing the stock papain solution in HBSS with Ca^2+ and Mg^2+ (1:10; Invitrogen) in order to easily remove the meninges. Once meninges and choroid plexus were removed, the tissue was enzymatically dissociated for 5 minutes at 37 °C again by using the papain solution (1:10 in HBSS without Ca^2+ and Mg^2+) and the digested tissue was then filtered through a 100 μm nylon mesh strainer (BD Biosciences) and seeded on poly-L-ornithine-coated (Sigma) 75 cm^2 flasks in DMEM medium (Invitrogen) containing 10% foetal bovine serum (FBS; BioWhittaker) and 100 U/mL penicillin, 0.1 mg/mL streptomycin and 0.25 μg/ml Amphotericin B antibiotic antimycotic solution (Sigma). Cultures were maintained at 37 °C and 5% CO2, and the medium was changed every 3 days. When the cultures reached confluence, they were shaken overnight at 250 rpm and at 37 °C in order to detach the OPCs located on the top of the confluent astrocyte monolayer and the medium was then filtered through a 40μm nylon mesh strainer (BDBiosciences) and centrifuged at 900 rpm. Cells were seeded twice (45 minutes each) in bacterial grade Petri dishes (Sterilin) to remove microglial cells. The resulting enriched oligodendrocyte progenitor cell suspension was counted and seeded.
(§1) Purified OPCs were placed on coverslips coated with poly-L-lysine and laminin in 24-well tissue culture dishes at a density of 2 × 10^4 cells/well. To promote differentiation, the cells were maintained in the differentiation medium (described above) and PDE7-GSK3 or GSK3 inhibitors (VP3.15 or TDZD8; 1 μM) were added to the culture medium. Different controls were used for the dual or single inhibitors due to the active substance being dissolved in differing amounts of DMSO. After 5, 7 and 10 DIV the cells were fixed with 4% PFA for further immunocytochemical analysis. Anti-CNPase antibodies (1:200;Covance; Cat#SMI-91R), anti-MBP antibodies (1:200; Serotec; Cat#MCA4095) for detecting oligodendrocytes and anti-Olig2 antibodies (1:250; Millipore; Cat#AB9610) as a marker for all oligodendroglial stages were used. Ten random fluorescence digital images were taken in each coverslip with a DFC480 FX digital camera (Leica) coupled to a Leica DM5000 B microscope for quantification. Data were expressed as a mean ratio of differentiated oligodendrocytes (CNPase^+-Olig2^+ double positive cells) with respect to total Olig2^+ cells ± SEM or percentage of CNPase^+ cells respect to control ± SEM, in at least three independent experiments, except with human samples (two independent experiments).

[2] = design: method as in PMID 23077723, PMID 25264825; conditions: cited from earlier work
PDE7 = tested on: PDE7; design: method as in PMID 24437940; conditions: read-out: PDE7 inhibition IC50; cited from earlier work
[3] = tested on: cerebellar slices demyelinated with LPC; assay: Ex vivo remyelination in cerebellar slice cultures demyelinated with LPC; assay type: cell-based, CD1 P7 mice; conditions: 5 μM, 3 days post lesion (3DPL)
Protocol: The protocol used was modified from previously described. CD1 P7 mice were decapitated, and their cerebella were dissected into ice-cold HBSS (Invitrogen). 300 μm sagittal slices of cerebellum were cut using a McIllwain tissue chopper, placed on Millicell-CM organotypic culture inserts (3 slices per insert; Millipore) in a medium containing HBSS:BME: horse serum (1:2:1, Invitrogen), 28 mM D (+) - glucose (Normapur), […] L-Glutamine (Invitrogen) and 100 U/mL penicillin, 0.1 mg/mL streptomycin and 0.25 μg/ml Amphotericin B antibiotic anti-mycotic solution (Sigma) and maintained at 5% CO2 and 37 °C. Medium was changed every two days, and after 7 days in culture, demyelination was induced by addition of 0.5 mg/ml LPC (Sigma) to the medium for 15 h. After that, slices were treated with fresh medium containing PDE7-GSK3 or GSK3 inhibitors (VP1.15, VP3.15 or TDZD8; 5 μM). Cultures were maintained for 1 or 3 days post lesion (DPL), and then fixed for 40 minutes and immunostained with anti-MBP antibodies (myelin basic protein –as a marker of myelin; 1:200; Serotec; Cat#MCA4095) and anti-neurofilament antibody (as a marker of axons; 1:200; Abcam; Cat#ab8135). Fluorescence images were taken on a confocal SP5 resonant scanner (Leica Microsystems) at 1μm intervals in white matter areas at x40 magnification. The photographs were merged and co-localisation of both markers was quantified with Image J software using the colocalization highlighter plugin. This measurement was related to the area occupied by axons (neurofilament staining) and normalized with control values showing the data as the mean normalized myelination index ± SEM. Quantification was made in at least three independent experiments.

adult human OPCs = assay: Differentiation assay, adult human OPCs; assay type: cell-based
Protocol: Human brain samples were obtained from adult patients of temporal lobe epilepsy resistant to pharmacological treatment or traumatic brain injury; they underwent surgical treatment by the Neurosurgery Service at the Hospital Universitario de La Princesa (Madrid, Spain) and Hospital 12 de Octubre (Madrid, Spain). All tissue samples were obtained under protocols approved by the Research Ethics Committee of Toledo (Spain) review boards. All were conducted in accordance with the Helsinki Declaration and were approved by the Research Ethics Committee of Toledo (Spain). All patients provided informed consent prepared under the guidelines of the Research Ethics Committee at their respective hospital in Madrid (Spain).
For cells obtained from human biopsies, the same protocol was used except that papain solution was used 1:2.5 in HBSS for 10 minutes for meningeal disintegration and 1:10 in HBSS for 15 minutes for the tissue digestion, 25 cm[2] flasks were used, the medium was supplemented with 10 ng/ml of human PDGF-AA (Millipore) for 2 weeks and then incubated for 2 more weeks without growth factors before shaking and the shaking was carried out at 230 rpm instead of 250 rpm.
as §1

[4] = murine P0 OPCs, 1 μM, 5, 7 and 10 DIV

c1ccc(-c2n/c(=N/CCN3CCOCC3)sn2-c2ccccc2)cc1 [VP3.15]
IC50 (GSK-3): 880 nM | number of mature oligodendrocytes (CNPase+-Olig2+ cells) vs control [1, 4]: significant increase | number of mature oligodendrocytes (MBP+-Olig2+ cells) vs control [1, 4]: significant increase | number of primary cytoplasmic processes ([1]; murine mature oligodendrocytes, control 4.9 ± 0.35, p = 0.64): 4.7 ± 0.31 | number of cytoplasmic subprocesses ([1]; murine mature oligodendrocytes, control 8.588 ± 0.875, p = 0.62): 8.111 ± 0.970 | emetic side effects [2]: without emetic side effects | IC50 (PDE7): 1590 nM | remyelination (normalized myelination index) [3]: increased | number of CNPase+-Olig2+ cells vs control (differentiation) (adult human OPCs; adult human OPCs, 1 μM, 5 DIV): significantly increased | number of primary cytoplasmic processes (adult human OPCs; adult human oligodendrocytes, control 2.9 ± 0.21, p = 0.72): 2.75 ± 0.20 | number of cytoplasmic subprocesses (adult human OPCs; adult human oligodendrocytes, control 4.3 ± 0.2, p = 0.83): 4.8 ± 0.43
